Assays:
[1] = target: Tyrosyl-DNA phosphodiesterase 1 (Homo sapiens, UniProt Q9NUW8); assay: ChEBML_1689436
Description: Inhibition of recombinant TDP1 (unknown origin) using 5'-[32P]-labeled single stranded DNA containing a 3'-phosphotyrosine as substrate after 15 mins by PAGE analysis

[2] = target: T1, Tyrosyl-DNA phosphodiesterase 2 (Homo sapiens, UniProt O95551); assay: ChEBML_1689437
T1 sequence (O95551 whole entry): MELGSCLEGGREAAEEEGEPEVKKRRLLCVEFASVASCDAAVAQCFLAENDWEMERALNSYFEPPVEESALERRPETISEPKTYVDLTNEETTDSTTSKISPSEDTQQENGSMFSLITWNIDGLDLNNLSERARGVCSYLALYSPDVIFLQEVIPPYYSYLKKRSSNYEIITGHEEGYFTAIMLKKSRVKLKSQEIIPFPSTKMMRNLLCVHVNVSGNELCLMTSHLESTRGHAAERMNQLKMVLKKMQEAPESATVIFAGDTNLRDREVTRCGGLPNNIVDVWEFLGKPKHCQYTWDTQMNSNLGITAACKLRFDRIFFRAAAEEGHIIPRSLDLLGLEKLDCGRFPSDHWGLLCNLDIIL
Description: Inhibition of recombinant human TDP2 using 3'-labeled alpha-[32P]-cordycepin as substrate after 15 mins

Sequence of Tyrosyl-DNA phosphodiesterase 1 (Q9NUW8 whole entry): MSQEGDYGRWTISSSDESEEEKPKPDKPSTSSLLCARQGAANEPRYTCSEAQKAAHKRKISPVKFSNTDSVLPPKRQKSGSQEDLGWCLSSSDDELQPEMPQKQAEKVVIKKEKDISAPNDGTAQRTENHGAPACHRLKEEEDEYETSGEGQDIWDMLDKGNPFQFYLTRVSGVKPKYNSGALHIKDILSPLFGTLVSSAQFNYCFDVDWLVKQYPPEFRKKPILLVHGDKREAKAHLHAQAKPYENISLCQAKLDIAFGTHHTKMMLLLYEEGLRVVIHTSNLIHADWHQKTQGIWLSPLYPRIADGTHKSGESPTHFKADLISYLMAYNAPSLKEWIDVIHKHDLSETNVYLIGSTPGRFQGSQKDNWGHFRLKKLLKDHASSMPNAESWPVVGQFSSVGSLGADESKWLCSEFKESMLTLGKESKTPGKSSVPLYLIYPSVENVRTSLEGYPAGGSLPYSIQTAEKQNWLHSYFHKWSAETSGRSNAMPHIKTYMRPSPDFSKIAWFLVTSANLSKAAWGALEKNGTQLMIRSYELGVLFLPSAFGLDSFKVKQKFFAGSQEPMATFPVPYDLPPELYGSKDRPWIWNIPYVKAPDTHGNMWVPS

CC[C@@]1(O)C(=O)OCc2c1cc1n(c2=O)Cc2cc3ccccc3nc2-1 [4-Ethyl-4-hydroxy-1,12-dihydro-4H-2-oxa-6,12a-diaza-dibenzo[b,h]fluorene-3,13-dione (Camptothecin)] gave an IC50 [1] greater than 111 µM and an IC50 [2] greater than 111 µM.

From BindingDB's records for doi:10.1021/acs.jmedchem.6b01870 (Purdue University, 2017)
